Values quoted from earlier work as cited in patent US20210360917A1, “CUTICLE SUPPLEMENT FOR PLANT PRODUCTION” (OREGON STATE UNIVERSITY, priority 2018, published 2021).

Test system: spotted wing Drosophila
Conditions: chemical alternative, source not given

CCOC(=O)CC(SP(=S)(OC)OC)C(=O)OCC (stereo not shown) [malathion]
reduction of egg laying: about 50%
